Reference: ChEMBL document CHEMBL1201862, “PubChem BioAssay data set” (2004)
Activity calls are given as the source filed them. How the calls were made is not given here.

target: T1, Mitogen-activated protein kinase kinase kinase kinase 2 (Homo sapiens, UniProt Q12851); assay type: functional;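 further: measured as one member of a kinome-wide kinase panel, with MAP4K2 as the panel entry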
T1 sequence (Q12851 whole entry): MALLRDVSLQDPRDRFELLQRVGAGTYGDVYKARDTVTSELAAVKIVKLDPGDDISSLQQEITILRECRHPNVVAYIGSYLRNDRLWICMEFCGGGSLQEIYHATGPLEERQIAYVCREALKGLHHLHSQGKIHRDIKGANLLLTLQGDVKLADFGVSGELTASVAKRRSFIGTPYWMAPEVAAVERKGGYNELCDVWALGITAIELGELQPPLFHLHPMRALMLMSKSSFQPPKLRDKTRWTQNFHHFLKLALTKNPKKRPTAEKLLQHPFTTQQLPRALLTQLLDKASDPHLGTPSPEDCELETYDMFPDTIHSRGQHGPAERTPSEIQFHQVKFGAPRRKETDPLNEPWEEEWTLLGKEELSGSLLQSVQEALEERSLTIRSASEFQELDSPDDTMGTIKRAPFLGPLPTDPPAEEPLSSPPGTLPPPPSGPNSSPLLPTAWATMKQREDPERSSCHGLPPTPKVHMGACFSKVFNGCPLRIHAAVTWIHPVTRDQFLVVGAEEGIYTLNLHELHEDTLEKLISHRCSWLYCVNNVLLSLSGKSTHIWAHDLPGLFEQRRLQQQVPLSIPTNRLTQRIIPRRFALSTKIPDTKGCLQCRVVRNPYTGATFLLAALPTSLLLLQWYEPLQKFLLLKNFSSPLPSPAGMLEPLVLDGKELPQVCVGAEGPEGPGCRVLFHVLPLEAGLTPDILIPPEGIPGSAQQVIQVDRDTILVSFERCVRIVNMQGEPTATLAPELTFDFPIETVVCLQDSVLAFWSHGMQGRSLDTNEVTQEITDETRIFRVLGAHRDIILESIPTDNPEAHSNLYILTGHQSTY

Ki | Compound
> 2.51 µM (inactive) | CCC1CC(NS(=O)(=O)C2CC2)CC1c1ncc2cnc3[nH]ccc3n12 (stereo not drawn)
> 2.51 µM (inactive) | O=C(Nc1cccc(C(F)(F)F)n1)Nc1ccnc2cc(OC(F)F)ccc12
12.6 µM (active) | O=c1[nH]c2cc(Br)cnc2[nH]1
> 2.51 µM (inactive) | O=C(Nc1cccc(C(F)(F)F)n1)Nc1ccnc2cc(Cl)ccc12

target: ALK tyrosine kinase receptor (Homo sapiens, UniProt Q9UM73); assay type: functional;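 further: ALK tested as one member of a kinase panel screen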
Sequence (Q9UM73 whole entry): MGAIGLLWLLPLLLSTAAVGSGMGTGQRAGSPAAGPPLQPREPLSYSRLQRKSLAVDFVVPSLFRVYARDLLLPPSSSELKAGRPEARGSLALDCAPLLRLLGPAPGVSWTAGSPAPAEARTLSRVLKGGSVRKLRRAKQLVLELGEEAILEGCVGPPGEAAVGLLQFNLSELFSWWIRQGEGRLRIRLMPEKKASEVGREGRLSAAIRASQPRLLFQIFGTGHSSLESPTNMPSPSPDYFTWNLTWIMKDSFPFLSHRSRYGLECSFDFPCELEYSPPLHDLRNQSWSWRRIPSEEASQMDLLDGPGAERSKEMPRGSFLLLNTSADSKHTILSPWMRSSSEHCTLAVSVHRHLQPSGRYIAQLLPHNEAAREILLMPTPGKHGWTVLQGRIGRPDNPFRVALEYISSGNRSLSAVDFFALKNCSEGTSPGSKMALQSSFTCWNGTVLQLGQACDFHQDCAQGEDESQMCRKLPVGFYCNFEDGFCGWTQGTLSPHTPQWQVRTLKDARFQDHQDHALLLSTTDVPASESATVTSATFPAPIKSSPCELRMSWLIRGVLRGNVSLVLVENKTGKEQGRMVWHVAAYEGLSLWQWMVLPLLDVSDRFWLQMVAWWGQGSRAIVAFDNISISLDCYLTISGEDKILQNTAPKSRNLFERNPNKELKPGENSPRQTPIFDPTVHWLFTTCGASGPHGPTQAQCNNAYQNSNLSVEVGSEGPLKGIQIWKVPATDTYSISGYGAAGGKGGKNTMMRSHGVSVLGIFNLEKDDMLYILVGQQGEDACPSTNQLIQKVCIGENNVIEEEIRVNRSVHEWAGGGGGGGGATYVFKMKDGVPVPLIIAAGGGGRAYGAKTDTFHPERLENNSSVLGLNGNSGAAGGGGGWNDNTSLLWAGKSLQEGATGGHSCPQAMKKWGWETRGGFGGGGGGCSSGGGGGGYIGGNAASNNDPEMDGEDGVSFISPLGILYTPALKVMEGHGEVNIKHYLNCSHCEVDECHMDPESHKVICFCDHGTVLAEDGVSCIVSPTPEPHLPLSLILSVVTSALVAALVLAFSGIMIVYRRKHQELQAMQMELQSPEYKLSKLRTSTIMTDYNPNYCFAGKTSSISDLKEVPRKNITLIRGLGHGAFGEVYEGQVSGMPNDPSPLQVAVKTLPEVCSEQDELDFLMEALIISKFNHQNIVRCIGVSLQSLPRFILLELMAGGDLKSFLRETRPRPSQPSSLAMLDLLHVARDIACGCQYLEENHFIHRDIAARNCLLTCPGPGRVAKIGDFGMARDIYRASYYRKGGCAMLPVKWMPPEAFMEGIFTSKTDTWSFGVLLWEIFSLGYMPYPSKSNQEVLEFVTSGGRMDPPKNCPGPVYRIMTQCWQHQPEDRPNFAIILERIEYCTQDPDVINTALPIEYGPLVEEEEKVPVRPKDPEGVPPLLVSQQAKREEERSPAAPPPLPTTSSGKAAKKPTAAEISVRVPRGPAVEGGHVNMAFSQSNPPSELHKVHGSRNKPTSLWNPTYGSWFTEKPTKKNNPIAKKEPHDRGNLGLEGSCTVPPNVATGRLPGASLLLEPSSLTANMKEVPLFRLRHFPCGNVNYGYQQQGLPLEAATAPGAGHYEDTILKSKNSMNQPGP

Ki | Compound
1 µM (active) | CCC1CC(NS(=O)(=O)C2CC2)CC1c1ncc2cnc3[nH]ccc3n12 (stereo not drawn)
> 6.31 µM (inactive) | O=C(Nc1cccc(C(F)(F)F)n1)Nc1ccnc2cc(OC(F)F)ccc12
63.1 µM (active) | O=c1[nH]c2cc(Br)cnc2[nH]1
> 6.31 µM (inactive) | O=C(Nc1cccc(C(F)(F)F)n1)Nc1ccnc2cc(Cl)ccc12

target: Dual specificity mitogen-activated protein kinase kinase 2 (Homo sapiens, UniProt P36507); experiment: Navigating the Kinome. Panel member name: MAP2K2; assay type: functional
Sequence (P36507 whole entry): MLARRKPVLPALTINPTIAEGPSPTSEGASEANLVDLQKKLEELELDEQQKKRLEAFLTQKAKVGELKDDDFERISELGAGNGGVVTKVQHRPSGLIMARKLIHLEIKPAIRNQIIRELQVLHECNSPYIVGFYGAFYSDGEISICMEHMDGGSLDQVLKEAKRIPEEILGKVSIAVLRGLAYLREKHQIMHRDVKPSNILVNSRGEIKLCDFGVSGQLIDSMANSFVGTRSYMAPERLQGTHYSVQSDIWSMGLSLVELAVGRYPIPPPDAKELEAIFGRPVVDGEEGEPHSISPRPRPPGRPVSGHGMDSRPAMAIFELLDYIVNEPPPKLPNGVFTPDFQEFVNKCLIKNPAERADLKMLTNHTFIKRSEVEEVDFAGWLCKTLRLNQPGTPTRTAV

Ki | Compound
> 3.98 µM (inactive) | CCC1CC(NS(=O)(=O)C2CC2)CC1c1ncc2cnc3[nH]ccc3n12 (stereo not drawn)
> 3.98 µM (inactive) | O=C(Nc1cccc(C(F)(F)F)n1)Nc1ccnc2cc(OC(F)F)ccc12
50.1 µM (active) | O=c1[nH]c2cc(Br)cnc2[nH]1
> 3.98 µM (inactive) | O=C(Nc1cccc(C(F)(F)F)n1)Nc1ccnc2cc(Cl)ccc12

target: T2, Tyrosine-protein kinase JAK3 (Homo sapiens, UniProt P52333); assay type: functional
T2 sequence (P52333 whole entry): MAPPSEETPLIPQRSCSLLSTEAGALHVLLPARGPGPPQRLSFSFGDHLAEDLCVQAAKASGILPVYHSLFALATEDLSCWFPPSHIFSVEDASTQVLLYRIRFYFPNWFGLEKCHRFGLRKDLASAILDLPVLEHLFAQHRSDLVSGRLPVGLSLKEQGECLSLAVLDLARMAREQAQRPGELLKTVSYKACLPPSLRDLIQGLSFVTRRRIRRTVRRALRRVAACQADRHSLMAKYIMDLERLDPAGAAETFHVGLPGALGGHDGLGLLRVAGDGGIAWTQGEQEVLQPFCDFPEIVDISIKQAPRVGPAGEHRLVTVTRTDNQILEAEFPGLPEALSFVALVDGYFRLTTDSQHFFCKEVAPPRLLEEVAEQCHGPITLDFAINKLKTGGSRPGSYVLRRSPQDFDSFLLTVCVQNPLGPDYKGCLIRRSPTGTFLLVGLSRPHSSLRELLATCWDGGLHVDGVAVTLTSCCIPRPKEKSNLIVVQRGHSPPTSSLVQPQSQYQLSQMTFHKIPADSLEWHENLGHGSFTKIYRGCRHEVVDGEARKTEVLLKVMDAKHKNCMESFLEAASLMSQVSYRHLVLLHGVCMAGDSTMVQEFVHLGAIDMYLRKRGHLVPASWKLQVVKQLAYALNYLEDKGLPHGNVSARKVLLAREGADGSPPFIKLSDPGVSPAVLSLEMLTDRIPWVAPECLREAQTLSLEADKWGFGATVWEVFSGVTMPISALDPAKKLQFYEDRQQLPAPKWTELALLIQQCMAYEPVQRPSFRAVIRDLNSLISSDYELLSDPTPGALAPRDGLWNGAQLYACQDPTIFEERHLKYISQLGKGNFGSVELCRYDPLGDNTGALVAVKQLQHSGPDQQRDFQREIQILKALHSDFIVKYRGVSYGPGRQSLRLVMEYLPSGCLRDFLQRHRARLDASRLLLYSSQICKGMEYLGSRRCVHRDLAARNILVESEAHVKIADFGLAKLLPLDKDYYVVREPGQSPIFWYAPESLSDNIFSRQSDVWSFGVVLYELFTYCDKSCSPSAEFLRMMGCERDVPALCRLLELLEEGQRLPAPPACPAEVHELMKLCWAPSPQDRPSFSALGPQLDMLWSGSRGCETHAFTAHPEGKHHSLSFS

Ki | Compound
0.00398 µM (active) | CCC1CC(NS(=O)(=O)C2CC2)CC1c1ncc2cnc3[nH]ccc3n12 (stereo not drawn)
> 5.01 µM (inactive) | O=C(Nc1cccc(C(F)(F)F)n1)Nc1ccnc2cc(OC(F)F)ccc12
3.98 µM (active) | O=C(Nc1cccc(C(F)(F)F)n1)Nc1ccnc2cc(Cl)ccc12

target: T3, Activin receptor type-1 (Homo sapiens, UniProt Q04771); experiment: Navigating the Kinome. Panel member name: ACVR1; assay type: functional
T3 sequence (Q04771 whole entry): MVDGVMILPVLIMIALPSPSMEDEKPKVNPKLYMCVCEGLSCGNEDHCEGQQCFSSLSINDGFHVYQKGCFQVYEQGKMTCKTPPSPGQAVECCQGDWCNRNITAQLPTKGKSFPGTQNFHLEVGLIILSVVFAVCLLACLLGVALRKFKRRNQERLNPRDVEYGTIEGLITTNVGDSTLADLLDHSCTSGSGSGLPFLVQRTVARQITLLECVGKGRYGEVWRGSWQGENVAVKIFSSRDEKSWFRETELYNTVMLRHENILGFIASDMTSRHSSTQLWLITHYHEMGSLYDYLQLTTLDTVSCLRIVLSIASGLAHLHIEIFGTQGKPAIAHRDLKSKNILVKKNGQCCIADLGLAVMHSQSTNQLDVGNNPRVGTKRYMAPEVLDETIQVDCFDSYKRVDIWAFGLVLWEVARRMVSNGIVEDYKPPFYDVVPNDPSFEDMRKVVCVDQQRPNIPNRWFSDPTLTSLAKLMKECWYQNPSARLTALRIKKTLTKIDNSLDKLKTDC

Ki | Compound
> 3.98 µM (inactive) | CCC1CC(NS(=O)(=O)C2CC2)CC1c1ncc2cnc3[nH]ccc3n12 (stereo not drawn)
25.1 µM (active) | O=c1[nH]c2cc(Br)cnc2[nH]1
1 µM (active) | O=C(Nc1cccc(C(F)(F)F)n1)Nc1ccnc2cc(Cl)ccc12
